{"source": "EPA's ToxValDB 9.5 (doi:10.2903/j.efsa.2015.3984)", "key": {"[1]": {"system": "Rattus norvegicus", "conditions": "chronic"}, "[2]": {"system": "Apis mellifera", "conditions": "acute, duration: 48 hours, mortality"}, "[3]": {"system": "Colinus virginianus", "conditions": "reproduction developmental"}, "[4]": {"system": "Bibionidae", "conditions": "chronic/long-term; duration: 28 days; development"}, "[5]": {"system": "Coturnix japonica", "conditions": "acute, oral"}, "[6]": {"system": "Mus musculus", "conditions": "acute; oral; mortality"}, "[7]": {"system": "Lepomis macrochirus", "conditions": "acute; duration: 96 hours; mortality"}, "[8]": {"system": "Oncorhynchus mykiss", "conditions": "mortality"}, "[9]": {"system": "Tagia sp."}, "[10]": {"system": "Canidae", "conditions": "oral, Dog Other, organ weight"}, "[11]": {"system": "Palaemonetes pugio", "conditions": "acute; duration: 96 hours; mortality"}, "[12]": {"system": "Daphnia magna", "conditions": "chronic/long-term; duration: 21 days"}, "[13]": {"system": "Menidia beryllina", "conditions": "acute; duration: 96 hours; mortality"}, "[14]": {"system": "Aphidius rhopalosiphi", "assay": "LR50; higher = less toxic", "conditions": "acute; duration: 48 hours; mortality"}, "[15]": {"system": "Typhlodromus pyri", "assay": "LR50; higher = less toxic", "conditions": "chronic/long-term; duration: 7 days; mortality"}}, "data": [{"smiles": "COc1ncc(F)c2nc(S(=O)(=O)Nc3c(F)cccc3F)nn12", "note": "[Florasulam]", "values": [{"measurement": "NOAEL", "setting": "[1]", "result": "> 100", "unit": "mg/kg-day"}, {"measurement": "LD50", "setting": "[2]; dermal", "result": "> 100", "unit": "µg/piece"}, {"measurement": "LD50", "setting": "[2]; oral, unspecified", "result": "> 100", "unit": "µg/piece"}, {"measurement": "NOAEL", "setting": "[3]", "result": 1500, "unit": "mg/kg-day"}, {"measurement": "NOEC", "setting": "[4]", "result": 10, "unit": "mg/L"}, {"measurement": "LC50", "setting": "[5]; diet", "result": "> 938", "unit": "mg/kg-day"}, {"measurement": "LD50", "setting": "[5]; mortality", "result": 1050, "unit": "mg/kg-day"}, {"measurement": "LD50", "setting": "[6]", "result": "> 5000", "unit": "mg/kg-day"}, {"measurement": "LC50", "setting": "[7]", "result": "> 100", "unit": "µg/mL"}, {"measurement": "LC50", "setting": "[8]; acute, duration: 96 hours", "result": "> 100", "unit": "µg/mL"}, {"measurement": "NOEC", "setting": "[8]; chronic/long-term, duration: 28 days", "result": 119, "unit": "mg/L"}, {"measurement": "LC50", "setting": "[9]; acute, duration: 14 days, mortality", "result": "> 1320", "unit": "mg/kg"}, {"measurement": "NOEC", "setting": "[9]; chronic/long-term", "result": 0.203, "unit": "mg/kg"}, {"measurement": "NOAEL", "setting": "[10]; chronic, duration: 1 years", "result": 5, "unit": "mg/kg-day"}, {"measurement": "NOAEL", "setting": "[10]; subchronic, duration: 90 days", "result": 5, "unit": "mg/kg-day"}, {"measurement": "LC50", "setting": "[11]", "result": "> 120", "unit": "µg/mL"}, {"measurement": "NOEC", "setting": "[12]", "result": 23.4, "unit": "mg/L"}, {"measurement": "LC50", "setting": "[13]", "result": "> 122", "unit": "µg/mL"}, {"measurement": "LR50", "setting": "[14]", "result": "> 15", "unit": "g/ha"}, {"measurement": "LR50", "setting": "[15]", "result": "> 15", "unit": "g/ha"}]}]}
